Activity calls are given as the source filed them.
Tests used:
Ion channel NompC = Ion channel NompC (Danio rerio, UniProt Q7T1G6); assay: Fluorescence counterscreen assay for TRPML3 agonists: dose response cell-based high-throughput screening assay to identify agonists of the transient receptor potential channel N1 (TRPN1). [Related pubchem assays: 1526, 1424, 1448 ]; type: functional
Mucolipin-3 = biological target: T1, Mucolipin-3 (Homo sapiens, UniProt Q8TDD5); assay: Dose response cell-based high-throughput screening assay for agonists of the transient receptor potential channel ML3 (TRPML3). [Related pubchem assays: 1526, 1424, 1448 ]; type: functional
T1 sequence (Q8TDD5 whole entry): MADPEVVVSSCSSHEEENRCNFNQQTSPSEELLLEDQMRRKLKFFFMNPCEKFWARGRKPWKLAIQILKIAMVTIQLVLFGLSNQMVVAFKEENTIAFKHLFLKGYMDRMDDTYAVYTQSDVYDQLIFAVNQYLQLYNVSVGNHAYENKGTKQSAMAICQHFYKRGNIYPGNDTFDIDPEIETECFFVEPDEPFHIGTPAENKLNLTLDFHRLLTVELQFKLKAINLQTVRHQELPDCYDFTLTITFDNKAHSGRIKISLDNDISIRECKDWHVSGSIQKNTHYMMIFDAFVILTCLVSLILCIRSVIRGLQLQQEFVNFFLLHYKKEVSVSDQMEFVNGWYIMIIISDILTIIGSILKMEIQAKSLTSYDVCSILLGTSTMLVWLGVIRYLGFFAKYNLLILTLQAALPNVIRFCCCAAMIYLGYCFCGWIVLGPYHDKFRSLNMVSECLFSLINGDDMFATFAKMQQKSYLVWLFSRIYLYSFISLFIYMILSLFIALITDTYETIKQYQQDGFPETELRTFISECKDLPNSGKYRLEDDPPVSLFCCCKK

[1] = biological target: NAD-dependent protein deacylase sirtuin-5, mitochondrial (Homo sapiens, UniProt Q9NXA8); assay: SIRT5 desuccinylase inhibitors, dose response, biochemical, fluorescence imaging, cherry-pick, set 5 (AID 720591);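 further: desuccinylation of succinyl peptide AMC substrate read as fluorescence after trypsin release; potency of inhibitors that lower fluorescence and may act on trypsin instead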
[2] = biological target: T2, Tyrosine-protein phosphatase non-receptor type 7 (Homo sapiens, UniProt P35236); assay: inhibitors of human HePTP phosphatase, […], biochemical, absorbance, leukemia target (AID 521); type: functional
T2 sequence (P35236 whole entry): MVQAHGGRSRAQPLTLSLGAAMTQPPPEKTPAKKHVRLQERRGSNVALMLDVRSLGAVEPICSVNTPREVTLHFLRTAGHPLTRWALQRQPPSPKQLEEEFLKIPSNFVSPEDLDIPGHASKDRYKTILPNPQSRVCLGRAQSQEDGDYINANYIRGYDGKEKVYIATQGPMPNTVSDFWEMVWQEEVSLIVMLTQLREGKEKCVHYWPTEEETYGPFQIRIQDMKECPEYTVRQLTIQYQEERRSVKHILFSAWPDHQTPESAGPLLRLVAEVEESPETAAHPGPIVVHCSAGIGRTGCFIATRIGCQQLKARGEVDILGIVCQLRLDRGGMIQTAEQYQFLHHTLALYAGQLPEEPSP

[3] = A Cell Based Secondary Assay To Explore Cytotoxicity of Compounds that Sensitize Mycobacterium Tuberculosis to Beta-Lactam Antibiotics.; type: functional
HeLa = assay: HeLa cell cytotoxicity, dose response, cytotoxicity control, 24 h, cherry-picked samples (AID 504726); type: functional, cell-based; settings: Homo sapiens;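 further: potency for cytotoxicity as loss of luminescence signal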
X-box-binding protein 1 = biological target: T3, X-box-binding protein 1 (Homo sapiens, UniProt P17861); type: functional, Cricetulus griseus;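 further: confirmatory dose-response counter-screen serving a CHOP assay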
T3 sequence (P17861 whole entry): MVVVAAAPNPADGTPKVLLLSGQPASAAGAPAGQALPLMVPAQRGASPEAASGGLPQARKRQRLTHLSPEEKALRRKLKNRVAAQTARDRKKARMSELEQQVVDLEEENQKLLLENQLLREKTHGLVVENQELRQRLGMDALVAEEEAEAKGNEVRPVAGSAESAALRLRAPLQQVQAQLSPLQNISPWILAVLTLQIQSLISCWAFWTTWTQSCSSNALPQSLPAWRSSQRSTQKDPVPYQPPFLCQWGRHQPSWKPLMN

Bcl-2-like protein 10 = biological target: T4, Bcl-2-like protein 10 (Homo sapiens, UniProt Q9HD36); assay: displacers of TR3 peptide from Bcl-B, primary screen, selectivity assay for Bfl-1 inhibitor project, biochemical, fluorescence polarization, FITC-TR3 peptide (AID 748);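 further: fluorescence polarization from a fluorescein-labelled TR3 peptide binding purified Bcl-B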
T4 sequence (Q9HD36 whole entry): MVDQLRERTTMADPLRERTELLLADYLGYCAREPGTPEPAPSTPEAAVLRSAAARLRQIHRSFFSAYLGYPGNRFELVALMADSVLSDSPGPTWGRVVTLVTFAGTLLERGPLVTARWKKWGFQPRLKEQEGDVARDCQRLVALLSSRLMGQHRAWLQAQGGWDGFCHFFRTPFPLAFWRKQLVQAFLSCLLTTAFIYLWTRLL

[4] = biological target: T5, Heat shock factor protein 1 (Mus musculus, UniProt P38532); assay: inhibition of MG132-induced HSE-luciferase signal, confirmation, cell-based, NIH3T3, luminescence, dose retest (AID 2382); type: functional;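 further: NIH3T3 fibroblasts with HSF1-driven luciferase reporter stressed by proteasome inhibitor MG132; luminescence from HSF1-driven luciferase expression after 8 hours of MG132 stress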
T5 sequence (P38532 whole entry): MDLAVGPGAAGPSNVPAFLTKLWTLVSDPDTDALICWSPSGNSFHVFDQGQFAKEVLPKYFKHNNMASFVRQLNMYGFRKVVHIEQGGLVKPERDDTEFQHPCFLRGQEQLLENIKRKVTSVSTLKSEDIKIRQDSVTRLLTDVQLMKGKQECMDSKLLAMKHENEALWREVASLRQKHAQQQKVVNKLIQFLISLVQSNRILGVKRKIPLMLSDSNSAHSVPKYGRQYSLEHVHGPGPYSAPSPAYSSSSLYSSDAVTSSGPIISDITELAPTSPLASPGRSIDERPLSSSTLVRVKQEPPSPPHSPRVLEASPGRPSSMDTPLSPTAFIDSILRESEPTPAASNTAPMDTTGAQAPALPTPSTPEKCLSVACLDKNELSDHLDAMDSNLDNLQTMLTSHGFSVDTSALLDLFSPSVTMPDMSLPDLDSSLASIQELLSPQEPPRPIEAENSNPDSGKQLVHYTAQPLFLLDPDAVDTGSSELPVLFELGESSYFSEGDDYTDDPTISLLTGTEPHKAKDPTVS

Cytochrome P450 2C9 = Cytochrome P450 2C9 (Homo sapiens, UniProt P11712)
Cytochrome P450 3A4 = Cytochrome P450 3A4 (Homo sapiens, UniProt P08684);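 further: CYP3A4 tested as one member of a cytochrome P450 panel screen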
[5] = biological target: T6, Lysosomal acid glucosylceramidase (Homo sapiens, UniProt P04062); assay: Dose response cell-based high throughput screening assay to identify enhancers of beta-glucosidase activity. [Related pubchem assays: 784 ]; type: functional
T6 sequence (P04062 whole entry): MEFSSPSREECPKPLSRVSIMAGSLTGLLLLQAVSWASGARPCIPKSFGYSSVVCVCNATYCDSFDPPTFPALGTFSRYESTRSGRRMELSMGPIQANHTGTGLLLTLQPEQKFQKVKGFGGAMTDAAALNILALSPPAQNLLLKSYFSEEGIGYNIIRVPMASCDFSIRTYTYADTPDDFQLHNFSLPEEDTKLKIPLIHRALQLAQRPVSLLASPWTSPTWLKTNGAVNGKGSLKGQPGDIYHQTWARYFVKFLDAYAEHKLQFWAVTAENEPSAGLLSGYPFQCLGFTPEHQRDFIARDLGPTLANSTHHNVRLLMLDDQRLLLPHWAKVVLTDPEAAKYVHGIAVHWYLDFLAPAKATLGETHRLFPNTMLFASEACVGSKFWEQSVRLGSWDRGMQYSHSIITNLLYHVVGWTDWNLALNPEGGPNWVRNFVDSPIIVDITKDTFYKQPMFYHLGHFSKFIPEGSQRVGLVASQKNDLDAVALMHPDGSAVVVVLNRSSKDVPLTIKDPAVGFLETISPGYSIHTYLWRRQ

[6] = biological target: Peroxisome proliferator-activated receptor gamma/Nuclear receptor coactivator 2 (Homo sapiens, UniProt P37231); type: functional;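 further: agonist potency for raising coactivator recruitment to the receptor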
[7] = biological target: Peroxisome proliferator-activated receptor gamma/Nuclear receptor coactivator 1 (Homo sapiens, UniProt P37231); type: functional;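 further: agonist potency as compounds enhance coactivator SRC-1 recruitment to PPARgamma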
[8] = biological target: Peroxisome proliferator-activated receptor gamma/Nuclear receptor coactivator 3 (Homo sapiens, UniProt P37231); type: functional;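 further: agonist potency for raising coactivator recruitment to the receptor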
fMet-Leu-Phe receptor = biological target: T7, fMet-Leu-Phe receptor (Homo sapiens, UniProt P21462); assay: FPR ligands, dose response (AID 519); type: functional
T7 sequence (P21462 whole entry): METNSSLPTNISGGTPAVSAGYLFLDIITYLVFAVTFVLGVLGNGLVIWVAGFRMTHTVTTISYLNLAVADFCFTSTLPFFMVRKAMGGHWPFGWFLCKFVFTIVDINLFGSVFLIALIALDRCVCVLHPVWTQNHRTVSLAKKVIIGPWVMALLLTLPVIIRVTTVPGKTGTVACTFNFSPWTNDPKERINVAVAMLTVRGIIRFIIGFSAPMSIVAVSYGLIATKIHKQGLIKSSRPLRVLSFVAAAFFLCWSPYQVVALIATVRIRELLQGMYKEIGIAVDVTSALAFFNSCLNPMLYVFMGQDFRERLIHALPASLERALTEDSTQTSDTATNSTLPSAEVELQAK

[9] = biological target: T8, Voltage-gated N-type calcium channel alpha-1B subunit/Amyloid beta A4 precursor protein-binding family A member 1 (Homo sapiens, UniProt Q00975+Q02410); type: protein assay
[10] = biological target: T8, Voltage-gated N-type calcium channel alpha-1B subunit/Amyloid beta A4 precursor protein-binding family A member 1; type: protein assay; remark: listed apart in the source
[11] = HEp-2 cell cytotoxicity, dose response, cytotoxicity control for RSV inhibitor project, HTS (AID 2410); type: functional; settings: human respiratory syncytial virus
[12] = Luminescence Cell-Based Dose Retest to Confirm Inhibitors of Cancer Stem Cells. [Related pubchem assays (depositor defined):AID2717, AID2721]; type: functional; settings: Homo sapiens
[13] = biological target: Protein-tyrosine kinase 2-beta (Homo sapiens, UniProt Q14289);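 further: potency of inhibitors of PYK2 kinase phosphorylation of poly-GT substrate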
[14] = P. falciparum Dd2 growth inhibitors, dose response, SYBR Green, dry powder samples, set 9 (AID 1159568); type: functional, cell-based

Chain of NAD-dependent protein deacylase sirtuin-5, mitochondrial (Q9NXA8 whole entry): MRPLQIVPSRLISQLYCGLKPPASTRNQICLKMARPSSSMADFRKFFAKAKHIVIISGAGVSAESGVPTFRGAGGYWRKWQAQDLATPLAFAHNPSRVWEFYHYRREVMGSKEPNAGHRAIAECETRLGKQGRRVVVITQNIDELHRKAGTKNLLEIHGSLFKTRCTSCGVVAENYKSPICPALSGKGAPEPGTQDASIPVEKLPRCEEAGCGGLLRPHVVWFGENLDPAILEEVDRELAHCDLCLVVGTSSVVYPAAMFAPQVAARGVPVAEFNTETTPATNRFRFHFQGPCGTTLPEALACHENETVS
Chain of Ion channel NompC (Q7T1G6 whole entry): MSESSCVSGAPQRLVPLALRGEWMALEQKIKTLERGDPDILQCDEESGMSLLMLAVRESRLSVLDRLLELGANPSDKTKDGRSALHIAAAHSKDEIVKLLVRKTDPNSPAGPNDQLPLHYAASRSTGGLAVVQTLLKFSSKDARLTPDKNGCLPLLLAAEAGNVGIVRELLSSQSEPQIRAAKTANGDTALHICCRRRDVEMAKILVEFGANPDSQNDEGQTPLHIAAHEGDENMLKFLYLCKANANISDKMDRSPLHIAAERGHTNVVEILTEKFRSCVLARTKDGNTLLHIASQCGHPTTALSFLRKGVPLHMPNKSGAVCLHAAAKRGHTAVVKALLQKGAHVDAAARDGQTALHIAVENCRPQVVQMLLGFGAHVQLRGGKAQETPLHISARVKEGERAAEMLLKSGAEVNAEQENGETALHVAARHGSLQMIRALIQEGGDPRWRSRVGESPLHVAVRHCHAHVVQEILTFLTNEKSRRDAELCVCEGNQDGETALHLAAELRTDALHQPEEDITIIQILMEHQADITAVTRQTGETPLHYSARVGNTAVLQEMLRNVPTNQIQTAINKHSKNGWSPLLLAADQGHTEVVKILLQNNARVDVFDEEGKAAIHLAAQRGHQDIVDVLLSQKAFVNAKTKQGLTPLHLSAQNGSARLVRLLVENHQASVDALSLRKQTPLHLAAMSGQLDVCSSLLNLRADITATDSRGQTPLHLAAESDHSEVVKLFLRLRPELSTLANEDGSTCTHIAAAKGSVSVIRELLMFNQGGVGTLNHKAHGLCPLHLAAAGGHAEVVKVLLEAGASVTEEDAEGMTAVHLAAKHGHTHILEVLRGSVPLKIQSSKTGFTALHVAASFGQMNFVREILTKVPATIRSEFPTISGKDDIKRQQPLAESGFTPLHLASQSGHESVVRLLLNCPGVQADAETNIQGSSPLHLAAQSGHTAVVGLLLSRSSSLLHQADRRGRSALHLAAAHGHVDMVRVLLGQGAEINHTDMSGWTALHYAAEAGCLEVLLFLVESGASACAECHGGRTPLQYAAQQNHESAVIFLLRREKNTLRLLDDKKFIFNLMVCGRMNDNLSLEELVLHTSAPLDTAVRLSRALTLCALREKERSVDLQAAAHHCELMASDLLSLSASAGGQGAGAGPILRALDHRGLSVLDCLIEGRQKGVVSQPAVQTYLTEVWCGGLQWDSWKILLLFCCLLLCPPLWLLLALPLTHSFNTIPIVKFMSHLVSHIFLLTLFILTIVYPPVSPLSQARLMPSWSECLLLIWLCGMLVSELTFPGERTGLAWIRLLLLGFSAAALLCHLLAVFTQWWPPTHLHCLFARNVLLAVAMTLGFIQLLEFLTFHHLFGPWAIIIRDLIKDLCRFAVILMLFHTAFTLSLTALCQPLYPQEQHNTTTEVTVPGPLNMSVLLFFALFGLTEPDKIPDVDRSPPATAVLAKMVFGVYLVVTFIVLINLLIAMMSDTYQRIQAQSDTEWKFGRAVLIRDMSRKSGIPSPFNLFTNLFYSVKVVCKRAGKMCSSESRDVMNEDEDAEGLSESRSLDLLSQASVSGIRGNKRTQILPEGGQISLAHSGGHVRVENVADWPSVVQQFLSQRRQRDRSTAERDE
T8 sequence (Q00975 whole entry): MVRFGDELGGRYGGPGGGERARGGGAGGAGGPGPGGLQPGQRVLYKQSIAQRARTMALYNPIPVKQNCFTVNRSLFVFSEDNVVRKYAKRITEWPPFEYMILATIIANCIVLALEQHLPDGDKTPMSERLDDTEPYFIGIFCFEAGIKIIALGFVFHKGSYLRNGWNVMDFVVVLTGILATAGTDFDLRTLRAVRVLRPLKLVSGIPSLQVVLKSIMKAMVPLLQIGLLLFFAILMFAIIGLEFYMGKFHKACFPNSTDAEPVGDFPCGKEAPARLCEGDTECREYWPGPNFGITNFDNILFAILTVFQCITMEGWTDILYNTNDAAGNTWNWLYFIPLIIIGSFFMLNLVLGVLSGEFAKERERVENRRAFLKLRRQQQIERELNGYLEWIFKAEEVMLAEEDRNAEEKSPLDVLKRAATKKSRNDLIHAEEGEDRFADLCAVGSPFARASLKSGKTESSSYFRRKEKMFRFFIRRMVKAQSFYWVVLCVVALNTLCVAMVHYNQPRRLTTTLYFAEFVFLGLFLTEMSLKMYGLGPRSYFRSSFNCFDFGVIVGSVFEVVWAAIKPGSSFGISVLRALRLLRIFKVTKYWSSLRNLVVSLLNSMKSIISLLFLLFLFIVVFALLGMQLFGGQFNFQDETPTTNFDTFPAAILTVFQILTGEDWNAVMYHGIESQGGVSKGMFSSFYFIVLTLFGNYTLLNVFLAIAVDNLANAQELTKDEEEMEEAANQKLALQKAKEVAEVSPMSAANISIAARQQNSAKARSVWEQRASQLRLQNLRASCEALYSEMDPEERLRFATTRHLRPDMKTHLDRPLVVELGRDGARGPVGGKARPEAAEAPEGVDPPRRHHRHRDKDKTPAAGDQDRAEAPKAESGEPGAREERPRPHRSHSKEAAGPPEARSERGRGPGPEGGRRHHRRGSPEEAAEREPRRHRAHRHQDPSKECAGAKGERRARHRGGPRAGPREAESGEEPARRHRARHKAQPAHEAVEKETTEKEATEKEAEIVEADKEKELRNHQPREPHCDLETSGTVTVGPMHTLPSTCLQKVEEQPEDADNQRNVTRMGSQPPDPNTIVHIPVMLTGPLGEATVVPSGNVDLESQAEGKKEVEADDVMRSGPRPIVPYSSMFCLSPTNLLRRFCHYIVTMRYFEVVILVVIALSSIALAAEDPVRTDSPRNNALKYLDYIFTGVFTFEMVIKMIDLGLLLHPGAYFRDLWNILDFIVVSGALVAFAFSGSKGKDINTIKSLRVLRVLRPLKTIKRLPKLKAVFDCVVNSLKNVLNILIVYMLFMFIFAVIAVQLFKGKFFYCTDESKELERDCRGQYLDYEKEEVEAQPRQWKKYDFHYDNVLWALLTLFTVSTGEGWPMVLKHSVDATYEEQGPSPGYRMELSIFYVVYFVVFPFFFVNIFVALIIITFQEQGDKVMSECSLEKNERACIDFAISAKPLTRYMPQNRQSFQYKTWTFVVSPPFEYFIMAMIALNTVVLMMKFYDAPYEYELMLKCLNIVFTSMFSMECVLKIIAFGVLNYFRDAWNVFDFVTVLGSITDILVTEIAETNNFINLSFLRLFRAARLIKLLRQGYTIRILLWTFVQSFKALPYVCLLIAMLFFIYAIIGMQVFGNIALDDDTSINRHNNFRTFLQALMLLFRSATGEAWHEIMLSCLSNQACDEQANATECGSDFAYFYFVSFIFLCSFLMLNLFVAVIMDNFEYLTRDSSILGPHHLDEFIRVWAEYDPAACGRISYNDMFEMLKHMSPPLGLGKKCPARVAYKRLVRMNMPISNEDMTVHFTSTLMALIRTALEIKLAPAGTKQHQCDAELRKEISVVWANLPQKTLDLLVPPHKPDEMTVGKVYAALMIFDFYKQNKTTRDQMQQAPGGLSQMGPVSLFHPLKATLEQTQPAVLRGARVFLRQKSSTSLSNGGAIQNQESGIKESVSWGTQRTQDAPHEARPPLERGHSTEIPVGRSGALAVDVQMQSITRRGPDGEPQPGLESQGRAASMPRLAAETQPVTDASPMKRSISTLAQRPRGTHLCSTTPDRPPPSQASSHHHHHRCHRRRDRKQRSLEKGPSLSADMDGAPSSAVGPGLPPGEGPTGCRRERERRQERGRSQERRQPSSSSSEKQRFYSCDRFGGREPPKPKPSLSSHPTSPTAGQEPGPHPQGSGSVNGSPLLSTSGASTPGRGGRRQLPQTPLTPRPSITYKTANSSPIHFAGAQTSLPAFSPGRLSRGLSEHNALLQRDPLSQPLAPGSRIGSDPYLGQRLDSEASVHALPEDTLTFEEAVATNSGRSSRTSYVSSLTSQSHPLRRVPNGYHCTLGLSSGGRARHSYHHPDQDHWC
T8 sequence (Q02410 whole entry): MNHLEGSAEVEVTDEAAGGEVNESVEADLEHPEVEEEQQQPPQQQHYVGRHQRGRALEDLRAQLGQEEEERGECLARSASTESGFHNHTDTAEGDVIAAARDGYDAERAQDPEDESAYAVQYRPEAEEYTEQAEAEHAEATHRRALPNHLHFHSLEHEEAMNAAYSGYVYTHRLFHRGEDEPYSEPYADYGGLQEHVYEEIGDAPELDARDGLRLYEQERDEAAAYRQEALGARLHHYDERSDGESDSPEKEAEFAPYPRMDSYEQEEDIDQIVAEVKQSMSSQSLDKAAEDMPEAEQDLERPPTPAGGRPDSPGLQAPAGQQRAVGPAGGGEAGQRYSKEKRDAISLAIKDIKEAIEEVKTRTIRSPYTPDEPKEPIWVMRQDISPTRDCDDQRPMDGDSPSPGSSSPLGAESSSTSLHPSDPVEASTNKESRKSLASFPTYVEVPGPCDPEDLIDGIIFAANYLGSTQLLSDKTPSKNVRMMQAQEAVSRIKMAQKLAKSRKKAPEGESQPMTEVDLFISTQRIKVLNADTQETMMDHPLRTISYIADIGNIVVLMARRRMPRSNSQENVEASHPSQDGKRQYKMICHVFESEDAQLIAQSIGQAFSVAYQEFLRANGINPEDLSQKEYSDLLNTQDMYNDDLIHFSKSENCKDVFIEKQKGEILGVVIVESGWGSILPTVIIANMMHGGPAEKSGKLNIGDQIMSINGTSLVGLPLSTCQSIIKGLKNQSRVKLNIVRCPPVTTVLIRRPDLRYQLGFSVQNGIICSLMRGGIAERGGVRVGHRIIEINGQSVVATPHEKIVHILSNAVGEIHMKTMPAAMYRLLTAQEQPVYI

## O=S(=O)(Nc1ccccc1N1CCCCC1)c1ccc(F)cc1
Ion channel NompC
  EC50: > 29.9 µM (not active)
Mucolipin-3
  EC50: 3.27 µM (active)

## COc1ccc(C(=O)C2=C(O)C(=O)N(CCCN3CCOCC3)C2c2ccc(OC)cc2)cc1 (centres undefined)
[1]
  AC50: > 30 µM (inactive)

## CC1(C)CC(=O)c2cnc(NC(=O)c3ccco3)nc2C1
[2]
  IC50: > 100 µM (not active)

## CCN1C(=O)[C@@H]2[C@@H](c3ccc(-c4ccc(Cl)c(Cl)c4)c(OC)c3)N3CCC[C@@]3(C(=O)OC)[C@@H]2C1=O
[3]
  CC50: 30.4 µM (active)

## CCOC(=O)c1cnc(SC)nc1Sc1ccc(Cl)cc1Cl
HeLa
  AC50: 261 µM (active)

## CCN(CC)CCOC(=O)c1ccc(N/C=C(/C#N)c2nc(-c3cccc(OC)c3)cs2)cc1
X-box-binding protein 1
  Absolute IC50 (XBP1): 10 µM

## Cc1c(NC(=O)c2cc3nc(-c4ccccc4)cc(C)n3n2)c(=O)n(-c2ccccc2)n1C
Bcl-2-like protein 10
  IC50: 81.2 µM (inactive)

## Cc1cc(C(C)(C)C)oc1C(=O)N(CC(=O)NC1CCCC1)c1c(C)cccc1C
[4]
  EC50: > 195 µM (not active)
Ion channel NompC
  EC50: > 29.9 µM (not active)
Mucolipin-3
  EC50: 2.54 µM (active)

## CC(C)NC(=O)c1cccc(Br)c1
[1]
  AC50: > 30 µM (inactive)

## COC(=O)c1ccc(NC2c3ncccc3C(=O)N2Cc2cccs2)cc1 (centres undefined)
cells
  IC50: 5.98 µM (active)

## CCOc1cc(S(=O)(=O)N2CCCCCC2)ccc1F
Ion channel NompC
  EC50: > 29.9 µM (not active)
Mucolipin-3
  EC50: > 29.9 µM (not active)

## O=C(CSc1nnc2c(n1)[nH]c1ccc(F)cc12)OCc1ccccc1
Cytochrome P450 2C9
  AC50: 0.0708 µM (inconclusive)
Cytochrome P450 3A4
  AC50: 8.91 µM (inconclusive)
[5]
  EC50: > 50 µM (not active)

## COCc1c(C(=O)OC)nnn1-c1ccccc1
[6]
  EC50: > 79.4 µM (not active)
[7]
  EC50: > 79.4 µM (not active)
[8]
  EC50: > 79.4 µM (not active)

## COc1ccc(CC(=O)Nc2ccc(-c3nnc(-c4ccc(C)cc4)o3)cc2)cc1
fMet-Leu-Phe receptor
  Ki: > 66.7 µM (inactive)
[9]
  IC50: 14.4 µM (active)
[10]
  IC50: > 50 µM (inactive)
[2]
  IC50: > 100 µM (not active)

## CNS(=O)(=O)c1ccc(OC)c(-c2nnc3c4ccccc4c(C)nn23)c1
cells
  IC50: 26.5 µM (active)

## Cc1ccc(S(=O)(=O)Nc2cc(C(=O)O)ccc2N2CCCCC2)cc1
[5]
  EC50: > 50 µM (not active)

## Cc1ccc(C)c(C(=O)C2=C(O)C(=O)N(CCCn3ccnc3)C2c2ccncc2)c1 (centres undefined)
fMet-Leu-Phe receptor
  Ki: > 66.7 µM (inactive)
[5]
  EC50: > 50 µM (not active)

## O=C(Nc1cccnc1)c1ccc(S(=O)(=O)N2CCCCCC2)cc1
Bcl-2-like protein 10
  IC50: > 100 µM (inactive)

## COC(=O)C1=C(c2ccc(F)cc2F)C[C@@H]2CC[C@H]1N2C(=O)N1CCC(C)CC1
cells
  IC50: 41.2 µM (active)
[11]
  CC50: 34.2 µM (active)

## CNC(=O)NC(=O)C(C)OC(=O)c1oc2ccccc2c1CSc1ccc(Cl)cc1 (centres undefined)
[12]
  AC50: 12.3 µM (active)
X-box-binding protein 1
  Absolute IC50 (XBP1): 10 µM

## CC(C)(C)OC(=O)N1CCC[C@H]1c1nnc(SCc2cccc(Cl)c2)o1
[1]
  AC50: > 30 µM (inactive)

## CO/C(O)=C1\C(C)=NC2=C(C(=O)CC(c3cccs3)C2)C1c1ccsc1 (centres undefined)
[13]
  IC50: > 69.5 µM (not active)

## Cc1ccnn1CC(=O)N/N=C/c1ccc([N+](=O)[O-])s1
[3]
  CC50: 36 µM (active)

## C[C@H]1CCCCO[C@@H](CN(C)S(=O)(=O)c2ccc(F)cc2)[C@@H](C)CN([C@@H](C)CO)C(=O)c2cc(N(C)C)ccc2O1
[14]
  AC50: 2.54 µM (active)

## N#C[C@H]1N[C@H](CO)[C@H]1c1ccc(C#CC2CCCCC2)cc1
[14]
  AC50: 12.9 µM (active)

From ChEMBL document CHEMBL1201862, “PubChem BioAssay data set” (2004)
